From patent US10197557B2, “Small molecules for endothelial cell activation” (The Regents of the University of California, priority 2011, dated 2019)

System: Primary human umbilical endothelial cells (EC)
Test: Biological platform: EC-monocyte co-culture, flow cytometry profiling (CD40, CD209, CD163) across 10 parameters
Format: cell-based
Details: Prestwick library of FDA approved compounds (FIG. 1B)
Experimental: The biological platform or assay described herein can be embodied in different ways (see, e.g., FIGS. 1 and 9). An embodiment of the biological platform of invention is provided below: • 1. Primary human umbilical endothelial cells (EC) are adhered in 96 or 384-well plates at confluency for 2 hours. • 2. Control stimuli (or compounds of interest) are added to EC for 5 hours. • 3. Compounds are removed, EC washed, and primary human peripheral blood monocytes are added. • 4. After 24 hours, 25 μl of supernatant is removed for MIP1α and MIP1β analysis. • 5. After 42-48 total hours of co-culture, cells are harvested for flow cytometry. • 6. Cells are labeled with: CD40, CD209, and CD163. • a. Parameter 1: Gate on EC/monocytes by using FSC vs SSC on whole co-culture population • b. Parameter 2: Use SSC vs. CD40 to separate monocytes from EC. Note: loss of EC population reflects compound toxicity. • c. Parameter 3: Gate on CD40+ monocytes • d. Parameter 4: Determine CD40 MFI on CD40+ macrophages • e. Parameter 5: Determine CD209 MFI on CD40+ macrophages • f. Parameter 6: Determine CD163 MFI on CD40+ macrophages • g. Parameter 7: Subtract vehicle control MFIs from each sample of interest. In the example below (FIGS. 2A and 2B), EC stimulation with IFNγ may promote EC-triggered MΦ with CD40 MFI=40, CD209 MFI=60, CD163=10. DMSO treated EC promote MΦ with CD40=20, CD209 MFI=30, and CD163=100. […]

CN(C)C(=N)N=C(N)N [metformin] was tested, and the “position in the profile of pro-inflammatory (enhanced) and anti-inflammatory (dampening) compounds” value was “dampening subset”.
